Experimental findings from ChEMBL document CHEMBL4840364, “Penicisteckins A-F, Isochroman-Derived Atropisomeric Dimers from Penicillium steckii HNNU-5B18” (J Nat Prod, 2021) are described below.

≈ marks a conversion by molar mass, not a printed value.

For one experiment, the system named is HGC-27. Briefly: Cytotoxicity against human HGC-27 cells assessed as inhibition of cell viability measured for 48 hrs by CCK colorimetric assay. The conditions noted are these: HGC-27, 48 h. The class given is functional, cell-based.
The next experiment deals with SH-SY5Y. Briefly: Cytotoxicity against human SH-SY5Y cells assessed as inhibition of cell viability measured for 48 hrs by CCK colorimetric assay. The class given is functional, cell-based.
The next experiment relates to C6. Briefly: Cytotoxicity against rat C6 cells assessed as inhibition of cell viability measured for 48 hrs by CCK colorimetric assay. The class given is functional, cell-based. The conditions noted are these: C6, 48 h.
For experiment [1], the system named is Staphylococcus aureus. Briefly: Antibacterial activity against Staphylococcus aureus ATCC 29213 assessed as bacterial growth inhibition incubated for 20 hrs by broth micro dilution method. Format: functional.
Experiment [2] concerns Staphylococcus aureus. Description: Antibacterial activity against methicillin-resistant Staphylococcus aureus assessed as bacterial growth inhibition incubated for 20 hrs by broth micro dilution method. Format: functional.

For orientation: IC50 means the midpoint of a concentration-inhibition curve. Turning to `COC1=C(c2c(O)cc(OC)c3c2C[C@H](C)OC3)C(=O)C(C)=C(C[C@@H](C)O)C1=O` (atropisomer aS), the IC50 in the experiment on HGC-27, with SH-SY5Y and in the experiment with C6 was < 10 µM throughout.
On to `COc1cc(O)c(-c2c(O)c(C)c3c(c2OC)CO[C@@H](C)C3)c2c1CO[C@@H](C)C2` (atropisomer aS), for which the IC50 in the experiment with HGC-27, with SH-SY5Y and in the experiment with C6 was < 10 µM in each case.
Consider `COc1cc(O)c(C)c2c1CO[C@@H](C)C2`, for which the IC50 with HGC-27, in the experiment on SH-SY5Y and in the experiment on C6 was < 10 µM each time.
In general, MIC refers to the smallest concentration in the dilution series that meets the test's criterion for growth inhibition. Consider `COC1=CC(=O)C(C)=C(C[C@@H](C)O)C1=O`, for which the IC50 with HGC-27, in the experiment with SH-SY5Y and in the experiment with C6 was < 10 µM throughout. In addition, the MIC in the experiment on Staphylococcus aureus [1] turned out to be 2 µg/mL (≈ 9.51 µM); in the experiment on Staphylococcus aureus [2] it was 8 µg/mL (≈ 38.1 µM).
Regarding `COc1c2c(c(C)c(O)c1-c1c(O)c(C)c3c(c1OC)CO[C@@H](C)C3)C[C@H](C)OC2` (atropisomer aR), the IC50 with HGC-27, in the experiment with SH-SY5Y and with C6 was < 10 µM throughout.
